Measurements reported in patent US20250388495A1, “WATER SA[…], SYSTEM AND METHOD” (WATERCO LIMITED, priority 2020, published 2025).

Key:
[1] = Monitoring of H2O2 and ClO2 levels in the test tank during the efficacy test; type: physicochemical
Text: An apparatus was set up to simulate swimming pool conditions and followed the Australian Pesticides and Veterinary Medicines Authority (APMVA) guidelines. A water tank filled with 180 litres of water recirculates via an ECO 100 pump (Waterco) set at low speed. A Hydrochlor® head unit (Waterco) is connected to a 13-plate low salt cell which is set to run at 100% during the test. A Digiheat unit (Waterco) is set up to control temperature during the tests. A FlowVis® valve (Waterco) was used to estimate flow rate through the apparatus. […] A Kemio™ test kit (Palintest) was used to monitor chlorine dioxide levels. A WDPHRH PER Swimming Pool controller was used to monitor pH and oxidation-reduction potential (ORP) during the tests.

[2] = Field trials: stability of chlorine dioxide in water with hydrogen peroxide; type: physicochemical
Text: For example, field trials indicate that chlorine dioxide will last in water up to 5 times longer when used in conjunction with hydrogen peroxide.
The process allows chlorine dioxide to remain active in water for up to and beyond 5 days.

[3] = produced by electrolysis with hydrogen peroxide present

SMILES	effect of the spike of pathogens on the level of the sanitiser [1]	effect of ultraviolet light on chlorine dioxide residual in the water [2, 3]	time chlorine dioxide remains active in water [2, 3] [days]	effect of agitation on chlorine dioxide levels ([2]; used in conjunction with hydrogen peroxide)	how much longer chlorine dioxide will last in water ([2]; used in conjunction with hydrogen peroxide, field trials)
OO [Hydrogen peroxide]	minimal				
[O][Cl+][O-] [chlorine dioxide]	dramatically affected	does not diminish	≥ 5	not affected by agitation	up to 5 times longer
